Literature values, collected in patent publication US6476058B2 (Isotechnika, Inc., priority 1998, dated 2002).

What was measured:
[1] = tested on: patients with chronic stable angina
[2] = in vivo
human = conditions: racemic mixture administered to a human

- serum calcium concentration [2]: not affected
- metabolites excreted in the urine (in vivo): 60%
- parent compound excreted in the urine (in vivo): 10%
- bioavailability in the presence of food (oral, food): not altered
- influence of renal impairment on pharmacokinetics (renal impairment): not significantly influenced
SMILES: CCOC(=O)C1=C(COCCN)NC(C)=C(C(=O)OC)C1c1ccccc1Cl (racemic) [amlodipine, (R.S.) 3-ethyl-5-1-methyl-2-(2-aminoethoxymethyl)-4-(2-chlorophenyl)-1,4-dihydro-6-methyl-3,5-pyridinedicarboxylate]
- reduction in blood pressures [1]: 4/1
- adverse effects (human): headache and edema, dizziness, flushing, palpitation, fatigue, nausea, abdominal pain and somnolence
